Measurements from patent US8609660B2, “4,7-dihydro-pyrazolo[1,5-a]pyrazin-6-ylamine derivatives useful as inhibitors of beta-secretase (BACE)” (Janssen Pharmaceutica NV, priority 2010, dated 2013).

How the values were obtained:
[1] = system: brain levels of soluble Aβ42; assay: In vivo efficacy: brain Aβ42 lowering (ELISA); design: species or system mouse; details: 30 mpk, sc
From the text: (§1) To determine whether acute administration of an Aβ42 peptide lowering agent would reduce Aβ peptide levels in vivo, non-transgenic rodents, e.g. mice or rats were used. Animals treated with the Aβ peptide lowering agent were examined and compared to those untreated or treated with vehicle and brain levels of soluble Aβ42 and total Aβ were quantitated by standard techniques, for example, using ELISA. Treatment periods varied from hours (h) to days and were adjusted based on the results of the Aβ42 lowering once a time course of onset of effect could be established.
(§2) A typical protocol for measuring Aβ42 lowering in vivo is shown but it is only one of many variations that could be used to optimize the levels of detectable Aβ. For example, Aβ peptide lowering compounds were formulated in 20% hydroxypropyl β cyclodextrin. The Aβ peptide lowering agents were administered as a single oral dose (p.o.) or a single subcutaneous dose (s.c.) to overnight fasted animals. After a certain time, usually 2 or 4 h (as indicated in Table 19), the animals were sacrificed and Aβ42 levels were analysed.
(§3) Blood was collected by decapitation and exsanguinations in EDTA-treated collection tubes. […] The left hemisphere was stored at −18° C. for quantitative analysis of test compound levels. […]
(§4) Mouse brains from non-transgenic animals were resuspended in 8 volumes of 0.4% DEA (diethylamine)/50 mM NaCl containing protease inhibitors (Roche-11873580001 or 04693159001) per gram of tissue, e.g. for 0.158 g brain, add 1.264 ml of 0.4% DEA. […] Nine parts of supernatant were neutralized with 1 part 0.5 M Tris-HCl pH 6.8 and used to quantify Aβtotal and Aβ42.
To quantify the amount of Aβtotal and Aβ42 in the soluble fraction of the brain homogenates, Enzyme-Linked-Immunosorbent-Assays were used. […] Following this incubation and subsequent wash steps the ELISA for Aβ42 quantification was finished by addition of Quanta Blu fluorogenic peroxidase substrate according to the manufacturer's instructions (Pierce Corp., Rockford, Ill.). A reading was performed after 10 to 15 min (excitation 320 nm/emission 420 nm).

brain levels of total Aβ = assay: In vivo efficacy: brain Aβtotal lowering (ELISA); design: species or system mouse; details: 30 mpk, sc
From the text: as §1, §2, §3, §4
To quantify the amount of Aβtotal and Aβ42 in the soluble fraction of the brain homogenates, Enzyme-Linked-Immunosorbent-Assays were used. […] Following this incubation and subsequent wash steps the ELISA for Aβ42 quantification was finished by addition of Quanta Blu fluorogenic peroxidase substrate according to the manufacturer's instructions (Pierce Corp., Rockford, Ill.). A reading was performed after 10 to 15 min (excitation 320 nm/emission 420 nm). […]

[2] = system: Aβ42 produced and secreted into the medium of human neuroblastoma SKNBE2 cells; assay: Cellular αlisa assay in SKNBE2 cells, Aβ42; type: cell-based; details: SKNBE2 cells expressing hAPP695, 18 hours incubation
Description: (§5) Cellular αlisa Assay in SKNBE2 Cells In two αlisa assays the levels of Aβtotal and Aβ42 produced and secreted into the medium of human neuroblastoma SKNBE2 cells are quantified. The assay is based on the human neuroblastoma SKNBE2 expressing the wild type Amyloid Precursor Protein (hAPP695). […] Aβtotal and Aβ42 are measured by sandwich α[…] sandwich assay using biotinylated antibody AbN/25 attached to streptavidin coated beads and antibody Ab4G8 or cAb42/26 conjugated acceptor beads for the detection of Aβtotal and Aβ42 respectively. In the presence of Aβtotal or Aβ42, the beads come into close proximity. The excitation of the Donor beads provokes the release of singlet oxygen molecules that triggers a cascade of energy transfer in the Acceptor beads, resulting in light emission. Light emission is measured after 1 hour incubation (excitation at […] and emission at 615 nm). A best-fit curve is fitted by a minimum sum of squares method to the plot of % Controlmin versus compound concentration. […] [formula]

[3] = target: T1, recombinant BACE1 protein (Homo sapiens, UniProt P56817); assay: Biochemical FRET based assay; details: recombinant BACE1 1 μg/ml, 120 min, room temperature, pH 5.0
T1 construct: recombinant BACE1 protein in a final concentration of 1 μg/ml
From the text: Biochemical FRET Based Assay This assay is a Fluorescence Resonance Energy Transfer Assay (FRET) based assay. The substrate for this assay is an APP derived 13 amino acids peptide that contains the 'Swedish' […] mutation of the amyloid precursor protein (APP) β-secretase cleavage site. […] Upon cleavage by BACE1, the fluorophore Mca is separated from the quenching group Dnp, restoring the full fluorescence yield of the donor. The increase in fluorescence is linearly related to the rate of proteolysis (Koike H et al. J Biochem. 1999, 126, 235-42). Briefly in a 384-well format recombinant BACE1 protein in a final concentration of 1 μg/ml is incubated for 120 minutes at room temperature with 10 μm substrate in incubation buffer (40 mM Citrate buffer pH 5.0, 0.04% PEG, 4% DMSO) in the absence or presence of compound. Next the amount of proteolysis is directly measured by fluorescence measurement at T=0 and T=120 (excitation at 320 nm and emission at 405 nm). […] [formula]

[4] = system: Aβtotal produced and secreted into the medium of human neuroblastoma SKNBE2 cells; assay: Cellular αlisa assay in SKNBE2 cells, Aβtotal; type: cell-based; details: SKNBE2 cells expressing hAPP695, 18 hours incubation
Description: as §5

T1 sequence (P56817 46-501): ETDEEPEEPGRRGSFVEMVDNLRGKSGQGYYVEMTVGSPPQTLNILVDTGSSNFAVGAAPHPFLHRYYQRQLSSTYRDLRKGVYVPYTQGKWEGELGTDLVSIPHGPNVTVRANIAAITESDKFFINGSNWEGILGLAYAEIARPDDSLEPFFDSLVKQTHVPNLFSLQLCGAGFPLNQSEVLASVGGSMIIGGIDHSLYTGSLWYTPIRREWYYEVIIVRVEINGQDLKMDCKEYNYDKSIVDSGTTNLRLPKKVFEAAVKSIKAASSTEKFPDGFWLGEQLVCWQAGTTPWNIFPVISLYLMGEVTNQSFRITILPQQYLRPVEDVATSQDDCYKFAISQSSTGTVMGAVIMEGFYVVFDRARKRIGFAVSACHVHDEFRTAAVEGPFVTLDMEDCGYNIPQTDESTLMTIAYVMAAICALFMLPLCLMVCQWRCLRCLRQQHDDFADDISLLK

Compound | Aβ42 (% Ctrl)_Mean ([1]; 4 h after administration) [% Ctrl] | Aβtotal (% Ctrl)_Mean (brain levels of total Aβ; 4 h after administration) [% Ctrl] | IC50 ([2]; Homo sapiens, SKNBE2, 18 h, read-out: Cellular αlisa assay in SKNBE2 cells Aβ42 pIC50 (converted)) [nM] | melting point [°C] | IC50 ([3]; read-out: Biochemical FRET based assay pIC50 (converted)) [nM] | IC50 ([4]; Homo sapiens, SKNBE2, 18 h, read-out: Cellular αlisa assay in SKNBE2 cells Aβtotal pIC50 (converted)) [nM] | Aβ42 (% Ctrl)_Mean ([1]; 2 h after administration) [% Ctrl] | Aβtotal (% Ctrl)_Mean (brain levels of total Aβ; 2 h after administration) [% Ctrl] | Cellular αlisa assay in SKNBE2 cells Aβ42 pIC50 [2] | Biochemical FRET based assay pIC50 [3] | Cellular αlisa assay in SKNBE2 cells Aβtotal pIC50 [4]
COc1cncc(-c2cccc(C3(C)N=C(N)Cn4nccc43)c2)c1 (racemic) [Compound 2, rac-4-[3-(5-methoxypyridin-3-yl)-phenyl]-4-methyl-4,7-dihydropyrazolo[1,5-a]pyrazin-6-amine] | 109 | 116 | 112 | 191.8 | 1660 | 105 |  |  |  |  | 
CC1(c2cccc(-c3cc(Cl)cc(Cl)c3)c2)N=C(N)Cn2nccc21 (centres unmarked) [Compound 20] |  |  |  |  |  |  | 86 | 80 | 6.33 | 6.76 | 6.37
